pEC50: −log10 of the molar value. Like-named read-outs stand apart in the source and are kept apart here.

For orientation: pEC50 means the EC50 on a negative log10 scale, so that one unit is a factor of ten. The inhibition is the drop in the measured response relative to a control, in per cent.

Common to all, as to test: cell-based
The target in assay [1] is T1, Kappa opioid receptor (KOR) (Homo sapiens, UniProt P41145).
Assay [2] addresses T1, Kappa opioid receptor (KOR). This is another data set of the same source.
Assay [3] shares this target. This is another data set of the same source.

T1 sequence (P41145 whole entry): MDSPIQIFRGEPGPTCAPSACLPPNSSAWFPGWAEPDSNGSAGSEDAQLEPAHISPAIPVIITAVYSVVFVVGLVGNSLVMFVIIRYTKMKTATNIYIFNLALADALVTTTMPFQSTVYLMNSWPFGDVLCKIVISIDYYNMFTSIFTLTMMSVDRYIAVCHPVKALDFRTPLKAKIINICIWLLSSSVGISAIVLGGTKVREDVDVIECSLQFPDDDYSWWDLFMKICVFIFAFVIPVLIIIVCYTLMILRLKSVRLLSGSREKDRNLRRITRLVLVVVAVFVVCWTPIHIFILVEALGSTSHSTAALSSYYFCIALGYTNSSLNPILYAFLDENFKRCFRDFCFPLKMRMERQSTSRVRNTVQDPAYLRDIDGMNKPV

In the case of `COC(=O)[C@@H]1C[C@H](OC(C)=O)C(=O)[C@@H]2[C@@]3(C)C[C@@H](c4ccoc4)CC(=O)[C@@H]3CC[C@]21C` (racemic) [ALB-230937, O6C-20-nor-SalA racemic mixture], the negative logarithm of the EC50 (pEC50) in assay [1] (EC50 Potency Score) is greater than 9.00; in assay [2] (EC50 Potency Score), greater than 9.00; in assay [3], greater than 10.00. Further, the inhibition at 0.0001 µM in assay [3] (read-out: inhibition of cAMP production) was determined as 100%.
With `COC(=O)[C@@H]1C[C@@H](OC(C)=O)C(=O)[C@@H]2[C@@]3(C)C[C@@H](c4ccoc4)CC(=O)[C@@H]3CC[C@]21C` [ALB-230935, 2-cpi-O6C-20-nor-SalA], the pEC50 in assay [1] (EC50 Potency Score) and in assay [2] (EC50 Potency Score) was 7.00 to 9.00 in each case.
Take `COCO[C@H]1C[C@@H](C(=O)OC)[C@]2(C)CC[C@H]3C(=O)C[C@H](c4ccoc4)C[C@@H]3[C@H]2C1=O` [ALB-231273]: the negative logarithm of the EC50 (pEC50) was greater than 9.00 in assay [1] (EC50 Potency Score), greater than 10.00 in assay [1] (estimated EC50), greater than 9.00 in assay [2] (EC50 Potency Score) and greater than 10.00 in assay [2] (estimated EC50).
As to `COC(=O)[C@@H]1C[C@H](O)C(=O)[C@@H]2[C@H]3C[C@@H](c4ccoc4)CC(=O)[C@@H]3CC[C@]21C` [ALB-231274, O6C-20-nor-SalB], the pEC50 in assay [1] (EC50 Potency Score) was 5.00 to 6.00; in assay [2] (EC50 Potency Score) it was 6.00 to 7.00.
As for `COC(=O)[C@@H]1C[C@H](OC(=O)/C=C/c2ccccc2)C(=O)[C@@H]2[C@H]3C[C@@H](c4ccoc4)CC(=O)[C@@H]3CC[C@]21C` [ALB-231360], the pEC50 in assay [1] (EC50 Potency Score) is 5.00 to 6.00; in assay [2] (EC50 Potency Score) it was 5.00 to 6.00; in assay [3], roughly 4.34.
Regarding “O6C-20-nor-SalA Enantiomer A [ALB-230936]”, the negative-log EC50 (pEC50) in assay [1] (read-out: EC50 Potency Score) and in assay [2] (read-out: EC50 Potency Score) was greater than 9.00 each time.
Consider “O6C-20-nor-SalA Enantiomer B [ALB-230932]”, for which the negative-log EC50 (pEC50) in assay [1] (read-out: EC50 Potency Score) and in assay [2] (read-out: EC50 Potency Score) was 7.00 to 9.00 throughout.
